# Experimental data reported in US11685711B2, “Carbon monoxide-releasing molecules triggered by physiological stimuli” (Georgia State University Research Foundation, Inc., priority 2017, dated 2023).
# Where two headings read alike, the source gives them in different places.
# Legend:
# [1] = CO release kinetics of 38 with or without H2O2 (HPLC); assay type: physicochemical; conditions: 20% of DMSO/PBS, 37° C., read-out: beta-elimination half-life (converted)
# Procedure: Solutions of 38 (20 μM) in 20% of DMSO/PB S was incubated with or without H2O2 (270 μM) at 37° C. Aliquots were taken for HPLC analysis to determine CO release kinetics by monitoring the formation of compound 25. HPLC was conducted using a Waters C18 column (3.5 LM, 4.6x 100 mm) equipped with a 20-μL injection loop and acetonitrile:water (85:15) as the mobile phase.
# Hela cells [2] = assay: Crystal violet assay, co-treatment with doxorubicin; conditions: 24 h; for synergistic effects with Dox in killing Hela cells: co-treatment with Dox
# Procedure: (§2) Towards this end, Hela cells and H9C2 cells were co-treated with 11/12 and Dox for 24 h. Then the cells were subjected to crystal violet assay for cytotoxicity evaluation. The cells treated with 11/12, or Dox only were used as controls. Additionally, the cells co-treated with Dox and compound 10a/11a/11b were employed as additional controls as well.
# (§3) Hela cells and H9C2 cells were seeded in 96-well plates and cultured in DMEM supplemented with 10% FBS and 1% penicillin/streptomycin at 37° C. under 5% CO2 for 24 h. The cells were either incubated with doxorubicin (1% DMSO DMEM solution, 0 to 4 μM) or a mixture of doxorubicin and indicated compounds (1% DMSO DMEM solution, 0 to 4 μM for doxorubicin) for 24 h. After removal of the medium, the plate was washed with 150 μL/well of PBS and the cell was fixed with 4% paraformaldehyde for 1 h at room temperature. The solution in the well was then removed and 100 μL of 0.5% crystal violet staining solution was added to each well. After incubation for 15 min at room temperature, the plate was washed with 200 μL of DI water for each well twice, followed by the addition of 100 μL/well of acetic acid solution (33%) to dissolve the dye. Absorbance at 615 nm was then measured by using a Perkin Elmer 1420 multi-label counter. Cell viability was measured and the results were normalized to the vehicle group. The experiment was triplicated and the results are expressed as mean±SD (n=3).
# Raw 264.7 cells = assay: Cytotoxicity against Raw 264.7 cells (Cell Counting Kit-8); assay type: cell-based; conditions: concentrations up to 50 μM, 24 h of incubation
# Procedure: All CO prodrugs were initially screened for their cytotoxicity against Raw 264.7 cells. […] Then RAW 264.7 cells were incubated in DMEM containing 1% DMSO and compounds (0-50 μM) for 24 hours. Then 10 μL of Cell Counting Kit-8 solution was added to each well and incubated for another three hours at 37° C. The absorbance at […] was measured by using a microplate reader.
# [3] = Stability in the absence of ROS (HPLC); assay type: physicochemical
# Procedure: Initially, 11 was employed to screen its sensitivity towards various ROS. […] The stability was tested by adding a solution of 11/12 (800 μL, 500 μM in acetonitrile) was added to 20 mL of PBS (pH 7.4, 10 mM) in a vial. Additional acetonitrile was added to make the final concentration of ACN 10% for all solutions. The resulting solution was incubated at 37° C. for 48 h. The solution was then analyzed using HPLC. All the experiments were triplicated, and the results are reported as mean±SD (n=3).
# physchem = assay type: physicochemical
# Procedure: A solution of 10/11 (20 μM) and NaClO (40 or 60 μM) in 10% of ACN in PBS (pH=7.4) was sealed and incubated at 37° C. At each defined time point, 500 μL of the reaction mixture was taken out and added into a vial containing Na2SO3 (100 μL, 250 mM) to quench the reaction. The resulting solution was then analyzed by HPLC (column: Waters C18 3.5 μM, 4.6×100 mm, injection loop volume: 20 μL). CO release was determined by monitoring the formation of the product and the consumption of the reaction intermediate as in the case of 10 or prodrug 11. The mobile phase was acetonitrile ACN/H2O (containing 0.05% trifluoroacetic acid).
# H9C2 cells [4] = assay: Crystal violet assay, co-treatment with doxorubicin and cytotoxicity; assay type: cell-based
# Procedure: as §2
# Hela cells and H9C2 cells were seeded in 96-well plates and cultured in DMEM supplemented with 10% FBS and 1% penicillin/streptomycin at 37° C. under 5% CO2 for 24 h. The cells were either incubated with doxorubicin (1% DMSO DMEM solution, 0 to 4 μM) or a mixture of doxorubicin and indicated compounds (1% DMSO DMEM solution, 0 to 4 μM for doxorubicin) for 24 h. After removal of the medium, the plate was washed with 150 μL/well of PBS and the cell was fixed with 4% paraformaldehyde for 1 h at room temperature. The solution in the well was then removed and 100 μL of 0.5% crystal violet staining solution was added to each well. […] Absorbance at 615 nm was then measured by using a Perkin Elmer 1420 multi-label counter. Cell viability was measured and the results were normalized to the vehicle group. The experiment was triplicated and the results are expressed as mean±SD (n=3).
# [5] = Sensitivity of 11 to various ROS (HPLC, formation of 11a); assay type: physicochemical
# Procedure: The CO release profiles in the absence/presence of ROS was studied using HPLC to monitor the consumption of 10/11 and the formation of 10a/11a. Various ROS solutions were prepared according to literature procedures. A solution of 11 (400 μL, 1 mM in acetonitrile (ACN) was added to 20 mL of PBS (pH 7.4, 10 mM). […] Additional ACN was added to make the final solution contain 10% of ACN. The resulting mixture was incubated at 37° C. for 30 min. CO release was monitored by the formation of 11a using HPLC. The experiment was triplicated, and the results are reported as mean±SD (n=3).
# Raw264.7 cells = assay: Fluorescent imaging of CO release of 11 with COP-1, with or without LPS; assay type: cell-based; conditions: Raw 264.7 cells, 11 50 μM + COP-1 1 μM + LPS 1 μg/mL, 5 hours
# Procedure: For imaging studies of 11 in transformed macrophage cells, RAW 264.7 cells were seeded in 6-well plates one day before the imaging experiment. Compounds were dissolved in DMSO as stock solution. Final concentration of 1 μM COP-1, 50 μM of 11 and 1 μg/mL of LPS were added into the cell culture. The cells without 11 was used as the negative control. After adding the compound, the cells were incubated at 37° C. for 5 hours. The cells were then fixed and taken for fluorescent images under the FITC channel (excitation: 490 nm, emission: 525 nm) using a Zeiss fluorescent microscope.
# Hela cells [6] = test system: Hela cells
# Procedure: as §2, §3
# Hela cells [7] = assay: Fluorescent imaging of CO release of 11 with COP-1; assay type: cell-based; conditions: 11 50 μM + COP-1 1 μM, 5 hours
# Procedure: (§1) Hela or H9C2 cells were seeded in 6-well plates one day before the imaging experiment. Compound 11 was dissolved in DMSO as stock solution. Final concentrations of 1 μM for COP-1 and […] were added into the cell culture. The sample without 11 was used as the negative control. After adding the compound, the cells were incubated at 37° C. for 5 hours. The cells were then fixed and taken for fluorescent images under the FITC channel (excitation: 490 nm, emission: 525 nm) using a Zeiss fluorescent microscope.
# H9C2 cells [8] = assay: Fluorescent imaging of CO release of 11 with COP-1; assay type: cell-based; conditions: 11 50 μM + COP-1 1 μM
# Procedure: as §1
# porcine liver esterase = assay: CO release kinetics in the presence of porcine liver esterase (HPLC); assay type: in vitro ADME
# Procedure: […] At each defined time point, 250 μL of the reaction mixture was taken out and added into a vial containing 500 μL ethanol. The mixture was incubated in an acetone dry ice bath (−78° C.) for 5 min, and centrifuged for 9 min (14.5×1000 rp) to precipitate the esterase out. The resulting supernatant was then analyzed by HPLC (column: Waters C18 3.5 μM, 4.6×100 mm, injection loop volume: 20 μL). […] The mobile phase was acetonitrile CH3CN/H2O (containing 0.05% trifluoroacetic acid).
smiles,measurement,setting,value
CCCCCSC1C(C=O)C2(C)C(=O)C1(C)C(c1ccccc1)=C2c1ccccc1 (stereo not drawn) [Compound 38],half-life at 20 µM,"[1]; 20% DMSO in PBS with H2O2 (270 µM), H2O2 (270 μM)",~1.5 h
same,half-life at 20 µM,"[1]; 20% DMSO in PBS, without H2O2",~24 h
"COC(=O)C1([Se]c2ccccc2)CC2(C)CC1(C)C(c1ccccc1)=C2c1ccccc1 (stereo not drawn) [Compound 11b, methyl 1,4-dimethyl-5,6-diphenyl-2-(phenylselanyl)bicyclo-[2.2.1]hept-5-ene-2-carboxylate, reference compound]",synergistic effects with Dox in killing Hela cells,Hela cells [2]; Hela cells,no synergistic effects were observed
"COc1cccc2c1C(=O)c1c(O)c3c(c(O)c1C2=O)C[C@@](O)(C(=O)CO)C[C@@H]3O[C@H]1C[C@H](N)[C@H](O)[C@H](C)O1 [Dox, doxorubicin, reference compound]",viability at 2 µM,"Hela cells [2]; Homo sapiens, HeLa, read-out: cell viability",~80%
"C[C@@]12C(=O)[C@](C)(C(c3ccccc3)=C1c1ccccc1)C(S(=O)(=O)c1ccccc1)C2C=O (stereo partly drawn) [Compound 7, (1S,4S)-1,4-dimethyl-7-oxo-5,6-diphenyl-3-(phenylsulfonyl)bicyclo-[2.2.1]hept-5-ene-2-carbaldehyde]",cytotoxicity (cell viability),Raw 264.7 cells,no cytotoxicity was observed
"COC(=O)C1([Se]c2ccccc2)CC2(C)C(=O)C1(C)C(c1ccccc1)=C2c1ccccc1 (stereo not drawn) [Compound 11, Methyl-1,4-dimethyl-7-oxo-5,6-diphenyl-2-(phenylselanyl)bicyclo[2.2.1]hept-5-ene-2-carboxylate]",formation of 11a,"[3]; absence of hypochlorite, 48 h of incubation",no formation of 11a was observed
same,half-life at 20 µM,physchem; pH 7.4,~30 s
same,synergistic effects with Dox in killing H9C2 cells,"H9C2 cells [4]; H9C2 cells, co-treatment with Dox, 24 h",no synergistic effects were observed
same,transformation within 30 min,"[5]; hydrogen peroxide (H2O2, 1 mM), 37° C.",less than 5%
same,transformation within 30 min,"[5]; hydroxyl radical (HO., 500 μM), 37° C.",less than 5%
same,time to complete transformation from 11 to 11a,[5]; hypochlorite (40 μM) at 37° C.,30 min
same,sensitivity towards ROS,"[5]; hypochlorite (ClO−), singlet oxygen (1O2) and O2−, 37° C.",very sensitive
same,transformation within 30 min,"[5]; tert-butoxy radical (tBuO·, 500 μM), 37° C.",less than 5%
same,transformation within 30 min,"[5]; tert-butyl hydroperoxide (TBHP, 500 μM), 37° C.",less than 5%
same,intracellular CO release (green fluorescence) with LPS vs without LPS,Raw264.7 cells,significantly enhanced green fluorescence
same,"cell viability, compound only",Hela cells [6],no decrease in cell viability was observed
same,intracellular CO release (green fluorescence) compared with H9C2 cells,Hela cells [7],much enhanced green fluorescence
same,intracellular CO release,H9C2 cells [8],negligible CO release
same,synergistic effects with Dox in killing Hela cells,Hela cells [2]; Hela cells,synergistically
"COC(=O)c1cc(C)c(-c2ccccc2)c(-c2ccccc2)c1C [Compound 11a, Methyl 3′,6′-dimethyl-[1,1′:2′,1″-terphenyl]-4′-carboxylate]",synergistic effects with Dox in killing Hela cells,Hela cells [2]; Hela cells,no synergistic effects were observed
"Cc1ccc(C)c(-c2ccccc2)c1-c1ccccc1 [Compound 10a, 3′,6′-Dimethyl-1,1′:2′,1″-terphenyl]",synergistic effects with Dox in killing Hela cells,Hela cells [2]; Hela cells,no synergistic effects were observed
"CC12CC([Se]c3ccccc3)C(C)(C1=O)C(c1ccccc1)=C2c1ccccc1 (stereo not drawn) [Compound 10, 1,4-dimethyl-2,3-diphenyl-5-(phenylselanyl)bicyclo[2.2.1]hept-2-en-7-one]",half-life of selenoxide elimination / CO release,"physchem; 20 µM, pH 7.4",around 4 h
same,time to finish the oxidation step,"physchem; initial hypochlorite concentration of 40 μM, 37° C.",30 s
"CC(=O)OC(OC(C)=O)C1C(S(=O)(=O)c2ccccc2)[C@]2(C)C(=O)[C@]1(C)C(c1ccccc1)=C2c1ccccc1 (stereo partly drawn) [Compound 24a, ((1S,4S)-1,4-Dimethyl-7-oxo-5,6-diphenyl-3-(phenylsulfonyl)bicyclo [2.2.1]hept-5-en-2-yl)methylene diacetate]",time to total consumption of prodrug (to form compound 23),"porcine liver esterase; porcine liver esterase (3 U/mL), 5% of DMSO in PBS (pH 7.4), 37° C.",≤ 2 min
"CC(C)(C)C(=O)OC(OC(=O)C(C)(C)C)C1C(S(=O)(=O)c2ccccc2)[C@]2(C)C(=O)[C@]1(C)C(c1ccccc1)=C2c1ccccc1 (stereo partly drawn) [Compound 24d, ((1S,4S)-1,4-Dimethyl-7-oxo-5,6-diphenyl-3-(phenylsulfonyl)bicyclo [2.2.1]hept-5-en-2-yl)methylene bis(2,2-dimethylpropanoate)]",esterase-mediated hydrolysis,"porcine liver esterase; in the presence of PLE, after 24 h of incubation",no hydrolysis was observed
"CC12CC([Se]c3ccccc3)(C(=O)NCCC[P+](c3ccccc3)(c3ccccc3)c3ccccc3)C(C)(C1=O)C(c1ccccc1)=C2c1ccccc1 (stereo not drawn) [Compound 12, (3-(1,4-dimethyl-7-oxo-5,6-diphenyl-2-(phenylselanyl)bicyclo [2.2.1]hept-5-ene-2-carboxamido)propyl)triphenylphosphonium]",stability in the absence of ROS,"[3]; 10% ACN in PBS (pH 7.4), 37° C., 48 hours",very stable
same,cytotoxicity against H9C2 cells,"H9C2 cells [4]; 5 μM, 24 h of incubation",showed toxicity
same,cell viability,"Hela cells [2]; Hela cells, 2 μM Dox in combination with 12 (2.5 μM)",around 20%
same,synergistic effects with Dox in killing Hela cells,Hela cells [2]; Hela cells,synergistically
same,"cell viability, compound only","Hela cells [2]; Hela cells, without Dox (0-μM group)",no decrease in cell viability was observed
